Publication PMC9229991, “Development of Reduced Peptide Bond Pseudopeptide Michael Acceptors for the Treatment of Human African Trypanosomiasis” (Molecules, 2022)
Where two headings read alike, the source gives them in different places.

Legend:
[1] = molecular target: T1, rhodesain (Trypanosoma brucei rhodesiense, UniProt Q95PM0); assay: Rhodesain fluorogenic enzyme assay (Cbz-Phe-Arg-AMC substrate); assay type: biochemical, T. b. rhodesiense; conditions: for Rhodesain kinac: pH 5.5, room temperature; for Rhodesain k2nd: k2nd = kinact/Ki; for inhibition at 100 µM: preliminary screening at 100 µM, read-out: Rhodesain % of inhibition at screening concentration
T1 construct: made in house
Method: All molecules were tested towards rhodesain utilizing fluorogenic assays in the presence of Cbz-Phe-Arg-AMC as substrate. […] Firstly, all the molecules were preliminarily screened at 100 µM (Figure 1A), and DMSO and E-64 were employed as the negative and positive control, respectively. Since SPR10–SPR19 passed the initial screening (% of inhibition > 80%), they were properly diluted, in accordance with what is reported in the literature.
Rhodesain was recombinantly expressed as previously described and Cbz-Phe-Arg-AMC (10 µM) was used as the fluorogenic substrate. The rhodesain-mediated hydrolysis released the fluorescent portion AMC, and fluorescence was measured at room temperature over a period of 30 min, using an Infinite 200 PRO microplate reader, and excitation (380 nm) and emission ([…]) filters were employed. The assay buffer was composed of 50 mM sodium acetate, 5 mM EDTA, 200 mM NaCl, and 0.005% Brij 35 with a pH equal to 5.5. Similarly, the enzyme buffer contained the same chemicals as the assay, with the exception of Brij, which was replaced by 1,4-dithiothreitol (DTT). All the SPR derivatives were solubilized in DMSO, which was also used as the negative control. E-64 protease inhibitor [76] was employed as the positive control. […] Each independent assay was performed twice and in duplicate, using 96 well-plates in a total volume of […]. The first order inactivation rate constants (kobs) were determined by means of nonlinear regression analysis of the progress curves (fluorescence (F) vs. time), and the equation F = A (1 − exp(−kobst)) + B was used. The obtained kobs values were fitted vs. the concentrations of tested inhibitors, and the equation kobs = kinact [I]/(Kiapp + [I]) provided the Kiapp and kinact values. Ki values were obtained using the equation Ki = Kiapp/(1 + [S]/Km), where Km is equal to 0.9 µM [77]. Grafit software was used for the nonlinear regression analysis to calculate kinact and Ki. The second-order rate constants k2nd were directly determined as k2nd = kinact/Ki.

[2] = test system: T. b. brucei; conditions: 24 h; cited from earlier work
[3] = molecular target: T2, human Cathepsin L (hCatL) (Homo sapiens, UniProt P07711); design: method as in PMID 31714776; conditions: unit printed in cell (PS1, Table 1); cited from earlier work
[4] = molecular target: T1, rhodesain; design: method as in PMID 31714776; conditions: lead compound; read-out: Rhodesain (TbrCatL) Ki; cited from earlier work
[5] = molecular target: T2, human Cathepsin L (hCatL); assay: hCatL fluorogenic enzyme assay (selectivity); assay type: biochemical; conditions: for inhibition at 100 µM: screening concentration 100 µM; for Ki: Km 6.5 µM
Method: In order to evaluate the selectivity towards the protozoan cysteine protease, all the new Michael acceptors were assayed against human Cathepsin L (hCatL), which represents the homologous protease of rhodesain in humans.
Similarly to rhodesain, the activity towards hCatL was evaluated as reported in the literature. The biological evaluation towards hCatL was performed using the same buffers, reader, fluorogenic substrate, and positive and negative controls as described above for rhodesain, and the preliminary screening was performed at 100 µM. In this case too, each independent assay was performed twice and in duplicate. Differently from rhodesain, Km is equal to 6.5 µM [77].

[6] = test system: T. b. brucei; assay: Antitrypanosomal activity, ATPlite assay; assay type: cell-based, Trypanosoma brucei brucei; conditions: 24 h
Method: The parasites used in this study were culture-adapted Trypanosoma brucei brucei of the cell line 449, descendants of the Lister strain 427 [79, 80]. The cells were grown in HMI-9 medium supplemented with 10% FCS, 50 U/mL penicillin, 50 µg/mL streptomycin, and 0.2 µg/mL phleomycin, at 37 °C and 5% CO2. EC50 values for the antitrypanosomal activity were determined using the ATPlite assay as previously described. Briefly, 10 mM compound stocks in DMSO were diluted to 333 µM in HMI-9 medium. This mixture was used to prepare nine further consecutive 1:2 dilutions in HMI-9 medium. Subsequently, 10 µL of diluted compound mixtures were added to 90 µL of media containing 2500 cell/mL in wells of a 96-well plate, in two separate triplicates. The highest DMSO concentration reached in compound plus cells mixture was 0.3%, and parasites treated with DMSO only were used as control. The cells were incubated for 24 h at 37 °C. Subsequently, 50 µL ATPlite 1 step solution (PerkinElmer) was added to each well and luminescence was measured using a CLARIOstar Plus plate reader (BMG Labtech).

[7] = test system: HEK293 cells; assay: Cytotoxicity assay, resazurin; assay type: cell-based; conditions: 24 h
Method: HEK293 cells were cultured in high-glucose DMEM medium with L-glutamine, supplemented with 10% FCS, 20 U/mL penicillin, and 20 µg/mL streptomycin, at 37 °C and 5% CO2. For the cytotoxicity assay, the cells were seeded in 400 µL at 60,000 cells per well of poly-lysine-coated 48-well plates, and incubated for 24 h at 37 °C. Compound stocks were diluted in DMSO in nine consecutive 1:2 steps, resulting in a set of ten dilutions with concentrations from 7 mM to […]. From each dilution, 4 µL were added to the cells in the 48-well plates, in two separate triplicates. Addition of only DMSO served as control. The plates containing cells plus compound dilutions were incubated for 21 h at 37 °C. Subsequently, the medium in each well was exchanged to a medium with resazurin (15 µg/mL), resulting in a final concentration of […]. The plates were incubated for 3 h at 37 °C. Finally, 100 µL of the solution from each well of the 48-well plate was transferred into a 96-well plate, and fluorescence was measured (excitation: 540-14, emission: 590-20) using a CLARIOstar Plus plate reader (BMG Labtech).

[8] = test system: L-6 rat myoblast cells; design: method as in PMID 21200426; conditions: cytotoxicity; read-out: IC50 towards L-6 rat myoblast cells; cited from earlier work
[9] = Cbz-Phe-Arg-AMC 10 µM, pH 5.5, Km 0.9 µM, read-out: Rhodesain Ki

T1 sequence (Q95PM0 entry or part of it): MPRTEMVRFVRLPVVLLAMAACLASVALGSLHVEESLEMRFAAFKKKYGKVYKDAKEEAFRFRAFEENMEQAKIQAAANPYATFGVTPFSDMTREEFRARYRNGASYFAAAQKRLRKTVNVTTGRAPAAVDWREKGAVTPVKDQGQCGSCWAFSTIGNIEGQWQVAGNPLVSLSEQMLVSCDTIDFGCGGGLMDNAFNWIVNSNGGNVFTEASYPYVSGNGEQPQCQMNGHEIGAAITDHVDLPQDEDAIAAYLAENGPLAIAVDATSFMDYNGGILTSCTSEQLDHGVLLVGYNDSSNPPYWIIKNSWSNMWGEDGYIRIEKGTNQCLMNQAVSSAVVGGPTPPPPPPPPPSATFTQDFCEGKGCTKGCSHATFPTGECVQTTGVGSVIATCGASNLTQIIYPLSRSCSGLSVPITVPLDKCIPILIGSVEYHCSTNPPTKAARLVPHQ
T2 sequence (P07711 114-333): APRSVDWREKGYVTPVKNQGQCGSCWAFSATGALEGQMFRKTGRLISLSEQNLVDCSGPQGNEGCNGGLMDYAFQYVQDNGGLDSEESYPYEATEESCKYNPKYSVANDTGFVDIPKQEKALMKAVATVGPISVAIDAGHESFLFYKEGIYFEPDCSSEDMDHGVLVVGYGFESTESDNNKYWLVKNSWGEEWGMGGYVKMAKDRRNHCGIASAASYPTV

Row | SMILES | Ki [1, 9] | Rhodesain kinac ([1]; Cbz-Phe-Arg-AMC 10 µM) | Rhodesain k2nd [1] | inhibition at 100 µM [1] | inhibition at 100 µM [5] | further results
1 | CC(C)C[C@H](NC(=O)[C@H]1O[C@@H]1C(=O)O)C(=O)NCCCCN=C(N)N [E-64, reference compound] | 0.033 ± 0.007 µM | 0.0085 ± 0.0008 min⁻¹ | 263000 ± 30000 M⁻¹ min⁻¹ | – | – | –
2 | CSc1ccc(OCc2ncc([N+](=O)[O-])n2C)cc1 [Fexinidazole] | – | – | – | – | – | EC50 [2]: 2.38 ± 0.88 µM
3 | CC(=O)C=CC(CCc1ccccc1)NC(=O)C(Cc1ccccc1)NC(=O)c1ccc(F)cc1 (stereo not shown) [PS-1] | – | 0.00094 ± 0.00007 min⁻¹ | 8.384e+08 ± 1.066e+08 M⁻¹ min⁻¹ | – | – | Ki [3]: 0.0019 ± 0.0004 µM; EC50 [2]: 5.1 ± 1 µM; Ki [4]: 1.1 pM
4 | COC(=O)/C=C/[C@H](CCc1ccccc1)NC(=O)[C@H](Cc1ccccc1)NCc1ccccc1 [SPR10, Methyl (S,E)-4-((S)-2-(benzylamino)-3-phenylpropanamido)-6-phenylhex-2-enoate] | 5.66 ± 0.3 µM | 0.0096 ± 0.0001 min⁻¹ | 1703 ± 68 M⁻¹ min⁻¹ | > 80% | 16% | –
5 | COC(=O)/C=C/[C@H](CCc1ccccc1)NC(=O)[C@H](Cc1ccccc1)NCc1ccc([N+](=O)[O-])cc1 [SPR11, Methyl (S,E)-4-((S)-2-((4-nitrobenzyl)amino)-3-phenylpropanamido)-6-phenylhex-2-enoate] | 0.43 ± 0.06 µM | 0.0023 ± 0.0001 min⁻¹ | – | > 80% | – | Ki [5]: 36.9 ± 2.2 µM
6 | COC(=O)/C=C/[C@H](CCc1ccccc1)NC(=O)[C@H](Cc1ccccc1)NCc1ccc(OC)cc1 [SPR12, Methyl (S,E)-4-((S)-2-((4-methoxybenzyl)amino)-3-phenylpropanamido)-6-phenylhex-2-enoate] | 4.79 ± 1.41 µM | 0.0062 ± 0.0014 min⁻¹ | 1314 ± 91 M⁻¹ min⁻¹ | > 80% | – | Ki [5]: 18.5 ± 3.9 µM
7 | COC(=O)/C=C/[C@H](CCc1ccccc1)NC(=O)[C@H](Cc1ccccc1)NCc1ccccc1F [SPR13, Methyl (S,E)-4-((S)-2-((2-fluorobenzyl)amino)-3-phenylpropanamido)-6-phenylhex-2-enoate] | 1.58 ± 0.62 µM | 0.0038 ± 0.0003 min⁻¹ | 2753 ± 885 M⁻¹ min⁻¹ | > 80% | 10% | –
8 | COC(=O)/C=C/[C@H](CCc1ccccc1)NC(=O)[C@H](Cc1ccccc1)NCc1cccc(F)c1 [SPR14, Methyl (S,E)-4-((S)-2-((3-fluorobenzyl)amino)-3-phenylpropanamido)-6-phenylhex-2-enoate] | 1.26 ± 0.08 µM | 0.0043 ± 0.0007 min⁻¹ | 3398 ± 328 M⁻¹ min⁻¹ | > 80% | 35% | –
9 | COC(=O)/C=C/[C@H](CCc1ccccc1)NC(=O)[C@H](Cc1ccccc1)NCc1ccc(F)cc1 [SPR15, Methyl (S,E)-4-((S)-2-((4-fluorobenzyl)amino)-3-phenylpropanamido)-6-phenylhex-2-enoate] | 2.64 ± 0.13 µM | 0.0041 ± 0.0002 min⁻¹ | 1552 ± 19 M⁻¹ min⁻¹ | > 80% | 10% | –
10 | COC(=O)/C=C/[C@H](CCc1ccccc1)NC(=O)[C@H](Cc1ccccc1)NCc1ccc(F)cc1F [SPR16, Methyl (S,E)-4-((S)-2-((2,4-difluorobenzyl)amino)-3-phenylpropanamido)-6-phenylhex-2-enoate] | 0.22 ± 0.06 µM | 0.0014 ± 0.0001 min⁻¹ | – | > 80% | 38% | EC50 ([6]; Trypanosoma brucei): 8.7 ± 3 µM; Cytotoxicity towards HEK293 cells: concentration up to which no relevant cytotoxicity was observed [7]: > 70 µM
11 | COC(=O)/C=C/[C@H](CCc1ccccc1)NC(=O)[C@H](Cc1ccccc1)NCc1cc(F)ccc1F [SPR17, Methyl (S,E)-4-((S)-2-((2,5-difluorobenzyl)amino)-3-phenylpropanamido)-6-phenylhex-2-enoate] | 0.46 ± 0.16 µM | 0.0024 ± 0.0006 min⁻¹ | – | > 80% | 12% | –
12 | COC(=O)/C=C/[C@H](CCc1ccccc1)NC(=O)[C@H](Cc1ccccc1)NCc1c(F)cccc1F [SPR18, Methyl (S,E)-4-((S)-2-((2,6-difluorobenzyl)amino)-3-phenylpropanamido)-6-phenylhex-2-enoate] | 0.21 ± 0.01 µM | 0.0012 ± 0.0001 min⁻¹ | – | > 80% | 26% | EC50 ([6]; Trypanosoma brucei): 7 ± 1 µM; Cytotoxicity towards HEK293 cells: concentration up to which no relevant cytotoxicity was observed [7]: > 70 µM
13 | COC(=O)C=CC(CCc1ccccc1)NC(=O)C(Cc1ccccc1)NCc1ccc(C(F)(F)F)cc1 (stereo not shown) [SPR19] | – | 0.0023 ± 0.0002 min⁻¹ | – | > 80% | 45% | Ki [1]: 0.41 ± 0.07 µM
14 | COC(=O)/C=C/[C@H](CCc1ccccc1)NC(=O)[C@H](Cc1ccccc1)NC(=O)c1ccc(F)cc1 [SPR34, (S,E)-methyl 4-((S)-2-(4-fluorobenzamido)-3-phenylpropanamido)-6-phenylhex-2-enoate] | 0.0058 ± 0.0004 µM | 0.0050 ± 0.0003 min⁻¹ | 870,606 ± 1178 M^−1 min^−1 | – | – | Selectivity Index (SI) (Ki hCatL/rhodesain) [5]: 603; Ki [5]: 3.5 ± 1.1 µM; EC50 [6]: 15.8 ± 2 µM; EC50 ([6]; Trypanosoma brucei): 16 ± 2.1 µM; Cytotoxicity towards HEK293 cells: concentration up to which no relevant cytotoxicity was observed [7]: > 70 µM
15 | Nc1nc(N)nc(Nc2ccc([As]3SCC(CO)S3)cc2)n1 (stereo not shown) [melarsoprol] | – | – | – | – | – | IC50 [8]: 3.3 µM
